# Data: patent publication US20120219538A1, “STABILIZED PROTEIN FORMULATIONS AND USE THEREOF” (THERAPEOMIC AG, priority 2009, published 2012)
# Where two headings read alike, the source gives them in different places.
# Molecular target: T1, salmon calcitonin (sCT) (Oncorhynchus keta, UniProt P01263)
# T1 construct: Salmon calcitonin is a 32-amino acid polypeptide hormone; purchased Therapeomic Inc., Switzerland
# T1 sequence (P01263 83-114 limits assumed): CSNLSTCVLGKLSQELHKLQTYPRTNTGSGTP
# Assay type: physicochemical
# Details: 10 mM sodium citrate buffer pH 6, 1:1 molar ratio; for slope of aggregation curve: Nile red fluorescence at 620 nm; for lag time of aggregation: OD at 450 nm
# Experimental: Salmon calcitonin (Therapeomic Inc., Switzerland) in a final concentration of 2.5 mg/ml per well with and without the respective excipients to be tested, i.e. non-conjugated mPEG-amines and non-conjugated hydrophobic headgroups were prepared in 4 different buffer systems: 10 mM sodium acetate pH 5, 10 mM sodium citrate pH 5, 10 mM sodium citrate pH 6, 10 mM sodium phosphate buffer pH 8. Samples are prepared two times and nile red in a final concentration of 1 μM is added to one of each. Aggregation is followed in UV-transparent 96-well plates or 384-well Costar® plates from Corning (Corning Life Sciences, Schiphol, Netherlands) by a microplate reader (Tecan Safire™ microplate reader, Tecan Group Ltd, Männedorf, Switzerland) by monitoring turbidity, nile red fluorescence and intrinsic fluorescence of the protein/peptide drug or the hydrophobic head-group. After finishing the aggregation kinetics, final spectra of nile red fluorescence, UV and protein/peptide drug or hydrophobic head group fluorescence were measured.
# Aggregation was checked in absence of any excipient, in presence of equimolar amounts of dansylamide, mPEG-amine 2 kD and dansyl-mPEG 2 kD, respectively.
substance,measurement,setting,value
salmon calcitonin [sCT],slope of aggregation curve,Table 2,1843 a.u./hrs
same,lag time of aggregation,Table 2,3.5 h
same,Nile red fluorescence at 620 nm,"Table 2, time 0 hrs",1058
same,OD at 450 nm,"Table 2, time 0 hrs",0.10
same,Nile red fluorescence at 620 nm,"Table 2, time 9.5 hrs",18581
same,OD at 450 nm,"Table 2, time 9.5 hrs",0.22
same,Nile red fluorescence at 620 nm,"Table 2, time 20 hrs",27276
same,OD at 450 nm,"Table 2, time 20 hrs",0.63
same,Nile red fluorescence at 620 nm,"Table 2, time 100 hrs",25328
same,OD at 450 nm,"Table 2, time 100 hrs",0.68
same,Nile red fluorescence at 620 nm,"Table 2, time 166 hrs",24729
same,OD at 450 nm,"Table 2, time 166 hrs",0.64
same,slope of aggregation curve,"Table 3, higher detector sensitivity",5546 a.u./hrs
same,lag time of aggregation,Table 3,4.2 h
same,OD at 450 nm,"Table 3, time 0 hrs",0.11
same,Nile red fluorescence at 620 nm,"Table 3, time 0 hrs, higher sensitivity of the fluorescence detector than Table 2",4560
same,Nile red fluorescence at 620 nm,"Table 3, time 5 hrs, higher sensitivity of the fluorescence detector than Table 2",38483
same,OD at 450 nm,"Table 3, time 6.2 hrs",0.15
same,OD at 450 nm,"Table 3, time 10 hrs",0.22
same,Nile red fluorescence at 620 nm,"Table 3, time 10 hrs, higher sensitivity of the fluorescence detector than Table 2",61019
same,Nile red fluorescence at 620 nm,"Table 3, time 13.5 hrs, higher sensitivity of the fluorescence detector than Table 2",>65000
same,Nile red fluorescence at 620 nm,"Table 3, time 20 hrs, higher sensitivity of the fluorescence detector than Table 2",>65000
same,OD at 450 nm,"Table 3, time 30.5 hrs",0.49
same,OD at 450 nm,"Table 3, time 140 hrs",0.56
